In brackets after ≈: the same amount, converted by molar mass.
Tests used:
[1] = target: T1, recombinant human CD73 (hCD73) (Homo sapiens, UniProt P21589); assay: CD73 activity assay on recombinant human CD73; type: biochemical; conditions: ΔGexp = RT ln Ki
T1 sequence (P21589 27-574): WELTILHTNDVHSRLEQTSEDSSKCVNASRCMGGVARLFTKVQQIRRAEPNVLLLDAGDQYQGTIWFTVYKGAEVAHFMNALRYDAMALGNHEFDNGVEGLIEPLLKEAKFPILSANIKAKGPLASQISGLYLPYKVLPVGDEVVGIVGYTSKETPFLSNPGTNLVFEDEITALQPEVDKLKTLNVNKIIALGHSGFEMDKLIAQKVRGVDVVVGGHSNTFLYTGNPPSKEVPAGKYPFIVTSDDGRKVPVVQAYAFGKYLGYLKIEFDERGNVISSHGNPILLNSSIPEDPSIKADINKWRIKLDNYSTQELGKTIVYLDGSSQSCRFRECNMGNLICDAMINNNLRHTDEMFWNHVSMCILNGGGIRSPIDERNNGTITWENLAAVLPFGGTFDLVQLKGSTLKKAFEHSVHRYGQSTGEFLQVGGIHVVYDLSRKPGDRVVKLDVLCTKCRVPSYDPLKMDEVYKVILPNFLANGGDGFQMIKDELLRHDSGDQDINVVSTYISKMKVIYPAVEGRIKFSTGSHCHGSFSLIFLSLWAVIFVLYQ

[2] = Plasma protein binding, mouse plasma; type: in vitro ADME; conditions: mouse, plasma, mouse plasma protein binding; read-out: PPB (m) (converted)
Protocol: (§1) Plasma protein binding of the investigated compounds was determined using equilibrium dialysis in single-use Rapid Equilibrium Dialysis devices with an 8 kDa molecular weight cutoff (Thermo Fisher Scientific), following the manufacturer’s protocol. In brief, 50 μL of undiluted human plasma (Biowest), spiked with the test compound at a final concentration of 100 μM, was added to the sample chamber, while 300 μL of phosphate-buffered saline (PBS) was placed in the buffer chamber. Devices were incubated for 4 h at 37 °C with gentle shaking.
(§2) After dialysis, 7.5 μL aliquots from both the plasma and buffer chambers were transferred directly into wells of a 384-well plate. To equalize the matrices for downstream processing, 7.5 μL of PBS was added to each plasma aliquot, and 7.5 μL of plasma was added to each buffer aliquot. Proteins were precipitated by adding four volumes of ice-cold methanol to each well, followed by thorough mixing and incubation at – 20 °C for 30 min. Plates were then stored overnight at 8 °C. Prior to analysis, the plate was centrifuged at 2,000 × g for 20 min at 8 °C. […] The fraction of unbound compound was calculated using the following equations: %Free=c(bufferchamber)/c(plasmachamber)*100% %Bound=100%−%Free

[3] = Microsomal stability assay, human liver microsomes; type: in vitro ADME; conditions: for Mics (hu) comp remaining 60 min: 10 μM; for microsomal CLint at 10 µM: pooled liver microsomes, pH 7.4, read-out: Mics (hu) CLint
[4] = Plasma protein binding, equilibrium dialysis, human plasma; type: in vitro ADME; conditions: undiluted plasma, human plasma protein binding, read-out: PPB (hu) (converted)
Protocol: as §1, §2

[5] = in vitro; conditions: human, plasma
[6] = Microsomal stability assay, mouse liver microsomes; type: in vitro ADME; conditions: for Mics (m) comp remaining 60 min: 10 μM; for microsomal CLint at 10 µM: pooled liver microsomes, pH 7.4, read-out: Mics (m) CLint
[7] = in vitro; conditions: mouse, plasma
[8] = tested on: CCRF-CEM; assay: In vitro cytotoxic activity; type: cell-based; conditions: Homo sapiens
Protocol: (§3) All the compounds were also tested for their in vitro cytotoxic activity on a small panel of four cancer cell lines (CCRF-CEM, HepG2, HeLa S3, HL-60) and nonmalignant human dermal fibroblasts (NHDF).

[9] = tested on: nonmalignant human dermal fibroblasts (NHDF); assay: In vitro cytotoxic activity; type: cell-based
Protocol: as §3

[10] = tested on: HeLa S3; assay: In vitro cytotoxic activity; type: cell-based; conditions: Homo sapiens
Protocol: as §3

[11] = tested on: HepG2; assay: In vitro cytotoxic activity; type: cell-based; conditions: Homo sapiens
Protocol: as §3

[12] = tested on: HL-60; assay: In vitro cytotoxic activity; type: cell-based; conditions: Homo sapiens
Protocol: as §3

[13] = Kinetic solubility in PBS; type: physicochemical; conditions: phosphate-buffered saline, pH 7.4, aqueous buffer, kinetic from dmso stock
Protocol: Test compounds were prepared as 10 mM stock solutions in DMSO and diluted in phosphate-buffered saline (PBS, pH 7.4) to a 100 μM solution, which was then aliquoted in duplicate. The duplicate samples were incubated in Multiscreen PCF Filter Plates (Merck Millipore) with sealed bottom at room temperature on a shaker for 2 h to allow equilibration. Following incubation, the samples were centrifuged into nonsterile, flat-bottom 96-well plates at 2,200 RCF for 12 min. Supernatants were then diluted 1:99 in a solution of 50% acetonitrile containing 0.1% DMSO. The diluted samples were transferred to 384-well Echo plates, which contained prespotted calibration standards prepared by Echo transfer of 10 mM and 1 mM DMSO stock solutions, resulting in calibration points ranging from 0.05 to 4 μM. Samples and standards were subsequently analyzed by Echo-MS.

| Structure (SMILES) | dG_exp, experimental binding free energy [1] | fraction unbound at 4 h, 100 µM [2] | Mics (hu) comp remaining 60 min [3] | microsomal CLint at 10 µM [3] | fraction unbound at 4 h, 100 µM [4] | half-life at 10 µM [5] | Mics (m) comp remaining 60 min [6] | microsomal CLint at 10 µM [6] | half-life at 10 µM [7] | IC50 [8] | IC50 [9] | IC50 [10] | IC50 [11] | IC50 [12] | solubility at 2 h [13] |
| --- | --- | --- | --- | --- | --- | --- | --- | --- | --- | --- | --- | --- | --- | --- | --- |
| O=P(O)(O)CP(=O)(O)OC[C@H]1O[C@@H](n2ccc3c(-c4ccc5cc(OCc6ccccc6)ccc5c4)nc(Cl)nc32)[C@H](O)[C@@H]1O [7B.31] | –14.1 kcal/mol | ≤ 0.01 | 147% | < 2 µL/min/mg | ≤ 0.01 | > 2 h | 134% | < 2 µL/min/mg | > 2 h | > 10 µM | > 10 µM | > 10 µM | > 10 µM | > 10 µM | > 100 µM |
| Nc1ccc(-c2nc(Cl)nc3c2ccn3[C@@H]2O[C@H](COP(=O)(O)CP(=O)(O)O)[C@@H](O)[C@H]2O)c2ccccc12 [7B.33] | –14.1 kcal/mol | 0.374 | 109% | < 2 µL/min/mg | ≤ 0.01 | > 2 h |  | < 2 µL/min/mg | > 2 h | 9.6 µM | 8.8 µM | 8.7 µM | 7.9 µM | 9.1 µM | > 100 µM |
| COc1ccc2cc(-c3nc(Cl)nc4c3ccn4[C@@H]3O[C@H](COP(=O)(O)CP(=O)(O)O)[C@@H](O)[C@H]3O)ccc2c1 [7B.35] | –15.4 kcal/mol | 0.088 | 106% | < 2 µL/min/mg | ≤ 0.01 | > 2 h | 103% | < 2 µL/min/mg | > 2 h | > 10 µM | > 10 µM | > 10 µM | > 10 µM | > 10 µM | 84 µM (≈ 50.4 µg/mL) |
| Nc1nc(-c2ccco2)c2ccn([C@@H]3O[C@H](COP(=O)(O)CP(=O)(O)O)[C@@H](O)[C@H]3O)c2n1 [11C.1, [(5-{[2-Amino-4-(furan-2-yl)-7H-pyrrolo[2,3-d]pyrimidin-7-yl]-β-D-ribofuranosyl}oxy)phosphonomethyl]phosphonic Acid] | –13.1 kcal/mol | 0.622 | 107% | < 1 µL/min/mg | 0.224 | > 2 h | 103% | < 1 µL/min/mg | > 2 h | > 10 µM | > 10 µM | > 10 µM | > 10 µM | > 10 µM | > 100 µM |
| Nc1nc(-c2ccc3ccccc3c2)c2ccn([C@@H]3O[C@H](COP(=O)(O)CP(=O)(O)O)[C@@H](O)[C@H]3O)c2n1 [11C.7] | –13.8 kcal/mol | 0.305 | 100% | < 1 µL/min/mg | 0.037 | > 2 h | 97% | 2 µL/min/mg | > 2 h | > 10 µM | > 10 µM | > 10 µM | > 10 µM | > 10 µM | > 100 µM |
| Nc1nc(-c2cc3ccccc3o2)c2ccn([C@@H]3O[C@H](COP(=O)(O)CP(=O)(O)O)[C@@H](O)[C@H]3O)c2n1 [11C.8] | –13.9 kcal/mol | 0.391 | 100% | < 1 µL/min/mg | 0.058 | > 2 h | 97% | 2 µL/min/mg | > 2 h | > 10 µM | > 10 µM | > 10 µM | > 10 µM | > 10 µM | 87 µM (≈ 47 µg/mL) |
| Nc1nc(-c2cccc3c2CCCC3)c2ccn([C@@H]3O[C@H](COP(=O)(O)CP(=O)(O)O)[C@@H](O)[C@H]3O)c2n1 [11C.12] | –13.9 kcal/mol | 0.445 | 101% | < 1 µL/min/mg | 0.157 | > 2 h | 100% | < 1 µL/min/mg | > 2 h | > 10 µM | > 10 µM | > 10 µM | > 10 µM | > 10 µM | 88 µM (≈ 48.8 µg/mL) |
| O=P(O)(O)CP(=O)(O)OC[C@H]1O[C@@H](n2ccc3c(-c4ccco4)nc(F)nc32)[C@H](O)[C@@H]1O [14D.1, [(5-{[2-Fluoro-4-(furan-2-yl)-7H-pyrrolo[2,3-d]pyrimidin-7-yl]-β-D-ribofuranosyl}oxy)phosphonomethyl]phosphonic Acid] | –13.4 kcal/mol | 0.664 | 103% | < 1 µL/min/mg | 0.045 | > 2 h | 96% | 1 µL/min/mg | > 2 h | > 10 µM | > 10 µM | > 10 µM | > 10 µM | > 10 µM | 80 µM (≈ 39.5 µg/mL) |
| O=P(O)(O)CP(=O)(O)OC[C@H]1O[C@@H](n2ccc3c(-c4ccc5ccccc5c4)nc(F)nc32)[C@H](O)[C@@H]1O [14D.7] | –14.2 kcal/mol | 0.183 | 112% | < 1 µL/min/mg | 0.024 | > 2 h | 105% | < 1 µL/min/mg | > 2 h | > 10 µM | > 10 µM | > 10 µM | > 10 µM | > 10 µM | 85 µM (≈ 47 µg/mL) |
| O=P(O)(O)CP(=O)(O)OC[C@H]1O[C@@H](n2ccc3c(-c4cc5ccccc5o4)nc(F)nc32)[C@H](O)[C@@H]1O [14D.8] | –14.3 kcal/mol | 0.286 | 107% | < 1 µL/min/mg | 0.008 | > 2 h |  | < 1 µL/min/mg | > 2 h | > 10 µM | > 10 µM | > 10 µM | > 10 µM | > 10 µM | 76 µM (≈ 41.3 µg/mL) |
